Data published in US20230248722A1, “CLOFAZIMINE COMPOSITION AND METHOD FOR THE TREATMENT OR PROPHYLAXIS OF VIRAL INFECTIONS” (priority 2020, published 2023).

Test system: SARS-CoV-2
Type: cell-based
Conditions: in vitro; 2.5 μM (or ~1.2 μg clofazimine/ml)

## CC(C)/N=c1\cc2n(-c3ccc(Cl)cc3)c3ccccc3nc-2cc1Nc1ccc(Cl)cc1 [clofazimine, N,5-bis(4-chlorophenyl)-3-propan-2-yliminophenazin-2-amine]
  reduce or eliminate viral replication: 40%
